Experimental data from patent US9232799B2, “N-[(het)arylethyl)] pyrazole(thio)carboxamides and their heterosubstituted analogues” (BAYER INTELLECTUAL PROPERTY GMBH, priority 2010, dated 2016).

Key:
[1] = logP by HPLC on reversed-phase column (C 18), EEC Directive 79/831 Annex V.A8; format: physicochemical
Procedure: In table 1, the logP values were determined in accordance with EEC Directive 79/831 Annex V.A8 by HPLC (High Performance Liquid Chromatography) on a reversed-phase column (C 18), using the method described below: Temperature: 40° C.; […]

[2] = tested on: Alternaria solani; experiment: In vivo preventive test on Alternaria solani (tomato); conditions: 500 ppm of active ingredient, evaluated 7 days after inoculation
Excerpt: One day after this treatment, the plants are inoculated with an aqueous spore suspension of Alternaria solani.

[3] = tested on: Pyrenophora teres; experiment: In vivo preventive test on Pyrenophora teres (barley); conditions: 500 ppm of active ingredient, evaluated 7-9 days after inoculation
Excerpt: One day after this treatment, the plants are inoculated with an aqueous spore suspension of Pyrenophora teres.

[4] = tested on: aflatoxines production; experiment: microbe, parasite or virus in culture; format: cell-based, Aspergillus parasiticus; conditions: 50 μM
[5] = tested on: Fusarium graminearum; experiment: microbe, parasite or virus in culture; format: cell-based; conditions: 50 μM

Structure (SMILES)	logP [1]	Efficacy [2]	Efficacy [3]	% Inhibition of Aflatoxin at 50 μM [4]	% Inhibition of fungal growth at 50 μM [5]
CN(CCc1ccccc1)C(=O)c1c(C(F)F)nn(C)c1F [Example 4]	2.43	100%	95%	100%	91%
Cn1nc(C(F)F)c(C(=O)N(CCc2ccccc2)C2CC2)c1Cl [Example 12]	3.06	100%	100%	100%	92%
CC(CN(C(=O)c1c(C(F)F)nn(C)c1Cl)C1CC1)c1ccccc1 (stereo not drawn) [Example 14]	3.31	100%	100%	100%	100%
CCN(C(=O)c1c(C(F)F)nn(C)c1F)C(C)C(=O)c1ccccc1 (stereo not drawn) [Example 17]	2.59	80%	–	100%	83%
CC(Cc1ccccc1F)N(C(=O)c1c(C(F)F)nn(C)c1Cl)C1CC1 (stereo not drawn) [Example 20]	3.52	95%	100%	86%	69%
CN(CCc1ccc(F)cc1)C(=O)c1c(C(F)F)nn(C)c1F [Example 22]	2.50	100%	100%	100%	100%
CC(CNC(=O)c1c(C(F)F)nn(C)c1Cl)c1c(F)cccc1F (stereo not drawn) [Example 29]	2.92	100%	100%	100%	82%
CC(CNC(=O)c1c(C(F)F)nn(C)c1F)c1c(F)cccc1F (stereo not drawn) [Example 30]	2.78	100%	100%	100%	98%
Cn1nc(C(F)F)c(C(=O)NCCc2ccccc2Cl)c1F [Example 32]	2.69	95%	100%	100%	99%
Cn1nc(C(F)F)c(C(=O)NCCc2ccccc2Cl)c1Cl [Example 34]	2.88	100%	100%	100%	84%
CN(CCc1ccccc1Cl)C(=O)c1c(C(F)F)nn(C)c1F [Example 35]	2.76	100%	100%	100%	100%
CN(CCc1ccccc1Cl)C(=O)c1c(C(F)F)nn(C)c1Cl [Example 36]	2.92	100%	95%	100%	94%
CC(CNC(=O)c1c(C(F)F)nn(C)c1F)c1ccccc1Cl (stereo not drawn) [Example 39]	2.94	100%	100%	100%	100%
CC(CNC(=O)c1c(C(F)F)nn(C)c1Cl)c1ccccc1Cl (stereo not drawn) [Example 40]	3.15	100%	94%	99%	78%
CC(c1ccccc1Cl)C(C)N(C(=O)c1c(C(F)F)nn(C)c1Cl)C1CC1 (stereo not drawn) [Example 42]	4.08	80%	100%	100%	84%
Cn1nc(C(F)F)c(C(=O)NCCc2cccc(Cl)c2)c1F [Example 47]	2.75	100%	100%	100%	100%
Cn1nc(C(F)F)c(C(=O)NCCc2cccc(Cl)c2)c1Cl [Example 49]	2.92	100%	94%	100%	91%
CC(CNC(=O)c1c(C(F)F)nn(C)c1F)c1cccc(Cl)c1 (stereo not drawn) [Example 51]	3.02	100%	100%	100%	100%
CC(CNC(=O)c1c(C(F)F)nn(C)c1Cl)c1cccc(Cl)c1 (stereo not drawn) [Example 52]	3.21	100%	100%	100%	83%
CCN(CCc1ccc(Cl)cc1)C(=O)c1c(C(F)F)nn(C)c1F [Example 56]	3.19	100%	100%	100%	93%
CC(C)C(CNC(=O)c1c(C(F)F)nn(C)c1Cl)c1ccc(Cl)cc1 (stereo not drawn) [Example 59]	3.94	100%	100%	100%	83%
CC(C)C(CNC(=O)c1c(C(F)F)nn(C)c1F)c1ccc(Cl)cc1 (stereo not drawn) [Example 60]	3.78	100%	100%	100%	96%

Structure (SMILES)	logP [1]	Efficacy [2]	Efficacy [3]	% Inhibition of Aflatoxin at 50 μM [4]	% Inhibition of fungal growth at 50 μM [5]
CN(CC(=O)c1ccc(Cl)cc1)C(=O)c1c(C(F)F)nn(C)c1F [Example 61]	2.53	90%	–	100%	84%
CC(CNC(=O)c1c(C(F)F)nn(C)c1F)c1ccc(Cl)cc1Cl (stereo not drawn) [Example 84]	3.46	95%	100%	100%	100%
CC(CNC(=O)c1c(C(F)F)nn(C)c1Cl)c1ccc(Cl)cc1Cl (stereo not drawn) [Example 85]	3.67	100%	100%	100%	100%
Cn1nc(C(F)F)c(C(=O)NCCc2ccccc2C(F)(F)F)c1Cl [Example 122]	3.11	95%	94%	–	–
COc1ccc(CCN(C)C(=O)c2c(C(F)F)nn(C)c2F)cc1OC [Example 129]	2.04	–	90%	90%	70%
CN(CCc1ccc(C(C)(C)C)cc1)C(=O)c1c(C(F)F)nn(C)c1Cl [Example 139]	3.96	90%	90%	–	–
Cn1nc(C(F)F)c(C(=O)NCCc2ccccc2Oc2ccccc2)c1F [Example 140]	3.48	100%	95%	–	–
Cn1nc(C(F)F)c(C(=O)NC(C)(C)Cc2cccc(Oc3ccccc3)c2)c1F [Example 142]	4.09	90%	78%	–	–
Cn1nc(C(F)F)c(C(=O)NCCc2cccc(Oc3ccccc3)c2)c1F [Example 143]	3.37	95%	89%	–	–
Cn1nc(C(F)F)c(C(=O)NCCc2ccc(Oc3ccccc3)cc2)c1Cl [Example 155]	3.60	95%	100%	–	–
C#CCOc1cc(C(OC)C(C)NC(=O)c2c(C(F)F)nn(C)c2Cl)ccc1OC (stereo not drawn) [Example 159]	2.76	–	–	98%	77%
Cn1nc(C(F)F)c(C(=O)NCCc2ccsc2Br)c1F [Example 166]	2.64	–	–	100%	97%
Cc1scc(CCNC(=O)c2c(C(F)F)nn(C)c2Cl)c1C [Example 168]	3.02	–	–	100%	97%
Cn1nc(C(F)F)c(C(=O)NCCc2csc3c2CCCC3)c1F [Example 170]	3.31	–	–	100%	95%
CC(Cc1ccco1)NC(=O)c1c(C(F)F)nn(C)c1F (stereo not drawn) [Example 173]	2.20	–	–	100%	83%
CC(Cc1ccco1)NC(=O)c1c(C(F)F)nn(C)c1Cl (stereo not drawn) [Example 174]	2.37	–	–	89%	76%
COCCN(CCc1ccncc1)C(=O)c1c(C(F)F)nn(C)c1Cl [Example 202]	1.69	–	–	99%	81%
CC(CN(C)C(=O)c1c(C(F)F)nn(C)c1Cl)c1ccncc1 (stereo not drawn) [Example 207]	1.74	–	–	99%	37%
Cn1nc(C(F)F)c(C(=O)NC2CCCCC2c2ccccc2)c1F (stereo not drawn) [Example 212]	3.13	89%	–	100%	99%
Cn1nc(C(F)F)c(C(=O)NC2CC2c2ccc(F)cc2)c1F (stereo not drawn) [Example 220]	2.59	–	100%	100%	81%
Cn1nc(C(F)F)c(C(=S)NC[Si](C)(C)c2ccccc2Cl)c1F [Example 234]	4.11	70%	100%	–	–
